Test results taken from patent US12378203B2, “Imidazole compounds, process for the synthesis and uses thereof” (AHAMMUNE BIOSCIENCES PRIVATE LIMITED, priority 2018, dated 2025).

Key:
Assay type in all cases: cell-based
human A375 cells = assay: Protection of melanocytes from tunicamycin (ER stress) induced cell death, MTT assay, A375; conditions: for EC50: Homo sapiens, A-375, different concentrations of compound along with tunicamycin, GraphPad Prism 7; for % Recovery: compound at 25-30 μM, 6 h pretreatment, tunicamycin 100 ng/ml, total 72 h, cell growth over tunicamycin treatment
Description: (§1) Compounds synthesized under present invention were tested for their in vitro potency. The potency was tested as their ability to protect melanocytes from ER stress induced cell death. ER stress was caused by the treatment of tunicamycin. The results obtained are summarized in Table-I, Table-II and Table-III for mouse B16F10 cells, human A375 cells and human primary melanocytes respectively. Table-IV and Table-V describes the potency of the compounds in effective concentration 50 (EC50) which means the dose of compound needed to get the 50% of maximum effect.
(§2) For the estimation of potency, mouse B16F10, human A375 or human primary melanocytes (NHEM) cells were pretreated in quadruplicates with these compounds for 6 hours. After 6 hours of incubation, tunicamycin was added at either 300 ng/ml for B16F10 cells or at 100 ng/ml for A375 cells or at 200 ng/ml for NHEM to induce stress mediated cell death and cultured further for a total of 72 hours. The vehicle (DMSO) concentration was kept constant for each well. After 72 hours of treatment, MTT assay was performed to measure the cell growth and vehicle control was kept at 100%. Effect of the treatment of compounds was calculated as cell growth over tunicamycin treatment. For the estimation of Effective Concentration 50 (EC50), cells were treated with different concentration of compounds along with tunicamycin and MTT assay was performed. The EC50 values were calculated by GraphPad Prism 7 software.

mouse B16F10 cells = assay: Protection of melanocytes from tunicamycin (ER stress) induced cell death, MTT assay, B16F10; conditions: for EC50: Mus musculus, B16-F10, different concentrations of compound along with tunicamycin, GraphPad Prism 7; for % Recovery: compound at 25-30 μM, 6 h pretreatment, tunicamycin 300 ng/ml, total 72 h, cell growth over tunicamycin treatment
Description: as §1, §2

[1] = test system: human primary melanocytes (NHEM: Normal Human Epidermal Melanocytes); assay: Protection of melanocytes from tunicamycin (ER stress) induced cell death, MTT assay, NHEM; conditions: compound at 25-30 μM, 6 h pretreatment, tunicamycin 200 ng/ml, total 72 h, cell growth over tunicamycin treatment
Description: as §1, §2

Row | Structure (SMILES) | EC50 (human A375 cells) | % Recovery (human A375 cells) | EC50 (mouse B16F10 cells) | % Recovery (mouse B16F10 cells) | % Recovery [1]
1 | CCCCCCCC(=O)NCCc1c[nH]c(-c2ccc(Cl)cc2)n1 [Compound 068, N-(2-(2-(4-chlorophenyl)-1H-imidazol-4-yl)ethyl)octanamide] | 9 µM | 42% | 33.8 µM | 21% | –
2 | CC(C)CC(=O)NCCc1c[nH]c(-c2ccc(Cl)cc2)n1 [Compound 027, N-(2-(2-(4-chlorophenyl)-1H-imidazol-4-yl)ethyl)-3-methylbutanamide] | 14.9 µM | 56% | – | – | 33%
3 | CC(C)OCCCNC(=O)Cc1c[nH]c(-c2ccc(Cl)cc2)n1 [Compound 010, 2-(2-(4-chlorophenyl)-1H-imidazol-4-yl)-N-(3-isopropoxypropyl)acetamide] | – | 17% | – | 12% | –
4 | O=C(NCCc1c[nH]c(-c2ccc(Cl)cc2Cl)n1)c1ccc(F)cc1 [Compound 070, N-(2-(2-(2,4-dichlorophenyl)-1H-imidazol-4-yl)ethyl)-4-fluorobenzamide] | 8.1 µM | 44% | 11.9 µM | 51% | –
5 | O=C(Cc1c[nH]c(-c2ccc(Cl)cc2)n1)Nc1cccc(C(F)(F)F)c1 [Compound 009, 2-(2-(4-chlorophenyl)-1H-imidazol-4-yl)-N-(3-(trifluoromethyl)phenyl)acetamide] | – | – | – | 36% | –
6 | O=C(NCCc1c[nH]c(-c2ccc(Cl)cc2)n1)C1=CCCC1 [Compound 055, N-(2-(2-(4-chlorophenyl)-1H-imidazol-4-yl)ethyl)cyclopent-1-ene-1-carboxamide] | 8.9 µM | 59% | – | 10% | 13%
7 | O=C(Cc1c[nH]c(-c2ccc(Cl)cc2)n1)Nc1ccc(C(F)(F)F)cc1 [Compound 014, 2-(2-(4-chlorophenyl)-1H-imidazol-4-yl)-N-(4-(trifluoromethyl)phenyl)acetamide] | 33.3 µM | 36% | – | 52% | –
8 | CCCCCC(=O)NCCc1c[nH]c(-c2ccc(Cl)cc2)n1 [Compound 067, N-(2-(2-(4-chlorophenyl)-1H-imidazol-4-yl)ethyl)hexanamide] | 3.1 µM | 54% | 9.7 µM | 40% | –
9 | O=C(Cc1c[nH]c(-c2ccc(Cl)cc2)n1)Nc1ccc(F)cc1 [Compound 011, 2-(2-(4-chlorophenyl)-1H-imidazol-4-yl)-N-(4-fluorophenyl)acetamide] | – | – | – | 18% | –
10 | CCCCNC(=O)Cc1cn(C)c(-c2ccc(Cl)cc2)n1 [Compound 005, N-butyl-2-(2-(4-chlorophenyl)-1-methyl-1H-imidazol-4-yl)acetamide] | – | – | – | 38% | –
11 | O=C(Cc1c[nH]c(-c2ccc(Cl)cc2)n1)N1CCC(F)(F)CC1 [Compound 012, 2-(2-(4-chlorophenyl)-1H-imidazol-4-yl)-1-(4,4-difluoropiperidin-1-yl)ethan-1-one] | – | – | – | 15% | –
12 | O=C(Cc1c[nH]c(-c2ccc(Cl)cc2)n1)NCCN1CCOCC1 [Compound 003, 2-(2-(4-chlorophenyl)-1H-imidazol-4-yl)-N-(2-morpholinoethyl)acetamide] | – | 13% | – | 17% | –
13 | CN1CCN(C(=O)Cc2c[nH]c(-c3ccc(Cl)cc3)n2)CC1 [Compound 020, 2-(2-(4-chlorophenyl)-1H-imidazol-4-yl)-1-(4-methylpiperazin-1-yl)ethan-1-one] | – | – | – | 17% | –
14 | O=C(NCCc1c[nH]c(-c2ccc(Cl)cc2Cl)n1)c1ccc(C(F)(F)F)cc1 [Compound 066, N-(2-(2-(2,4-dichlorophenyl)-1H-imidazol-4-yl)ethyl)-4-(trifluoromethyl)benzamide] | 12.1 µM | 44% | 7.2 µM | 50% | –
15 | Cn1cc(CC(=O)Nc2ccc(F)cc2)nc1-c1ccc(Cl)cc1 [Compound 013, 2-(2-(4-chlorophenyl)-1-methyl-1H-imidazol-4-yl)-N-(4-fluorophenyl)acetamide] | – | – | – | 40% | –
16 | O=C(NCCc1c[nH]c(-c2ccc(Cl)cc2)n1)C1CC1 [Compound 046, N-(2-(2-(4-chlorophenyl)-1H-imidazol-4-yl)ethyl)cyclopropanecarboxamide] | 7.9 µM | 63% | – | 27% | 10%

Row | Structure (SMILES) | EC50 (human A375 cells) | % Recovery (human A375 cells) | EC50 (mouse B16F10 cells) | % Recovery (mouse B16F10 cells) | % Recovery [1]
17 | CN1CCN(C(=O)Cc2cn(C)c(-c3ccc(Cl)cc3)n2)CC1 [Compound 021, 2-(2-(4-chlorophenyl)-1-methyl-1H-imidazol-4-yl)-1-(4-methylpiperazin-1-yl)ethan-1-one] | – | – | 55.7 µM | – | –
18 | O=C(Cc1c[nH]c(-c2ccc(Cl)cc2)n1)NC1CCCC1 [Compound 019, 2-(2-(4-chlorophenyl)-1H-imidazol-4-yl)-N-cyclopentylacetamide] | – | – | – | 36% | –
19 | CCCCNC(=O)Cc1c[nH]c(-c2ccc(Cl)cc2)n1 [Compound 004, N-butyl-2-(2-(4-chlorophenyl)-1H-imidazol-4-yl)acetamide] | – | 32% | – | 22% | –
20 | O=C(NCCc1c[nH]c(-c2ccc(Cl)cc2)n1)C1CCC1 [Compound 050, N-(2-(2-(4-chlorophenyl)-1H-imidazol-4-yl)ethyl)cyclobutanecarboxamide] | 33.4 µM | 27% | – | 35% | 5%
21 | Cn1cc(CC(=O)NCCc2ccc(F)cc2)nc1-c1ccc(Cl)cc1 [Compound 022, 2-(2-(4-chlorophenyl)-1-methyl-1H-imidazol-4-yl)-N-(4-fluorophenethyl)acetamide] | – | 18% | 13.7 µM | 44% | –
22 | O=C(NCCc1c[nH]c(-c2ccc(Cl)cc2)n1)c1ccc(F)cc1 [Compound 051, N-(2-(2-(4-chlorophenyl)-1H-imidazol-4-yl)ethyl)-4-fluorobenzamide] | 5.9 µM | 50% | – | 22% | 35%
23 | O=C(NCCc1c[nH]c(-c2ccc(Cl)cc2)n1)C12CC3CC(CC(C3)C1)C2 [Compound 064, (3r,5r,7r)-N-(2-(2-(4-chlorophenyl)-1H-imidazol-4-yl)ethyl)adamantane-1-carboxamide] | 4.9 µM | 65% | – | – | 38%
24 | CCC(C)(C)C(=O)NCCc1c[nH]c(-c2ccc(Cl)cc2)n1 [Compound 026, N-(2-(2-(4-chlorophenyl)-1H-imidazol-4-yl)ethyl)-2,2-dimethylbutanamide] | 18.6 µM | 50% | 8.6 µM | 15% | 30%
25 | O=C(NCCc1c[nH]c(-c2ccc(Cl)cc2Cl)n1)c1cc(F)cc(F)c1 [Compound 071, N-(2-(2-(2,4-dichlorophenyl)-1H-imidazol-4-yl)ethyl)-3,5-difluorobenzamide] | 10.5 µM | 39% | 10.9 µM | 58% | –
26 | CC(C)OCCCNC(=O)Cc1cn(C)c(-c2ccc(Cl)cc2)n1 [Compound 008, 2-(2-(4-chlorophenyl)-1-methyl-1H-imidazol-4-yl)-N-(3-isopropoxypropyl)acetamide] | – | – | – | 39% | –
27 | Cn1cc(CC(=O)NCCN2CCOCC2)nc1-c1ccc(Cl)cc1 [Compound 006, 2-(2-(4-chlorophenyl)-1-methyl-1H-imidazol-4-yl)-N-(2-morpholinoethyl)acetamide] | – | – | – | 31% | –
28 | Cn1cc(CC(=O)N2CCCC2)nc1-c1ccc(Cl)cc1 [Compound 017, 2-(2-(4-chlorophenyl)-1-methyl-1H-imidazol-4-yl)-1-(pyrrolidin-1-yl)ethan-1-one] | – | – | – | 29% | –
29 | O=C(NCCc1c[nH]c(-c2cc(Cl)cc(Cl)c2)n1)c1cc(F)cc(F)c1 [Compound 069, N-(2-(2-(3,5-dichlorophenyl)-1H-imidazol-4-yl)ethyl)-3,5-difluorobenzamide] | 1.2 µM | 88% | – | – | –
30 | O=C(Cc1c[nH]c(-c2ccc(Cl)cc2)n1)NCCc1ccc(F)cc1 [Compound 001, 2-(2-(4-chlorophenyl)-1H-imidazol-4-yl)-N-(4-fluorophenethyl)acetamide] | – | 25% | – | 52% | –
31 | Cn1cc(CC(=O)Nc2cccc(C(F)(F)F)c2)nc1-c1ccc(Cl)cc1 [Compound 007, 2-(2-(4-chlorophenyl)-1-methyl-1H-imidazol-4-yl)-N-(3-(trifluoromethyl)phenyl)acetamide] | – | 19% | – | 38% | –
32 | O=C(Cc1c[nH]c(-c2ccc(Cl)cc2)n1)N1CCCC1 [Compound 016, 2-(2-(4-chlorophenyl)-1H-imidazol-4-yl)-1-(pyrrolidin-1-yl)ethan-1-one] | – | 17% | – | 14% | –
